Results as given in patent publication US11198711B2 (priority 2013, dated 2021).

Columns and labels:
[1] = test system: Mamestra brassicae larvae; assay: Droplet-feeding (oral) assay with Mamestra brassicae larvae; assay type: in vivo
Protocol: Droplet-feeding assays were carried out to assess the oral activity of Hv1a/GNA, pro-Hv1a/GNA, PI1a, Ao1bProPI1a, PI1a/GNA, Ao1bPro-PI1a/GNA, or Hv1aPro-PI1a/GNA towards third to fifth instar larvae of M. brassicae. Larvae were starved for approximately 24 h before feeding in order to encourage droplet consumption. Larvae were fed with a 2 μl droplet containing 20 μg of the above fusion proteins, 30 μg of toxins or 30 μg of GNA, in 1×PBS solution containing 10% sucrose (w/w). Control larvae were fed on PBS/sucrose droplets containing no added protein. Treated larvae were placed on standard artificial diet after consumption of the droplet.

[2] = test system: Mamestra brassicae larvae; assay: Injection bioassay with Mamestra brassicae larvae; assay type: in vivo; settings: injection at up to 40 μg/insect
Protocol: 3rd-5th instar Mamestra brassicae larvae (approximately 30-55 mg in weight) were used for injection bioassays. Larvae were injected with varying doses of Hv1a, pro-Hv1a, pro-Hv1a/GNA, PI1a, Ao1bProPI1a, PI1a/GNA, Ao1bPro-PI1a/GNA, or Hv1aPro-PI1a/GNA (n=20 per dose) in 5 μl of PBS (phosphate buffered saline; 0.15 M NaCl, 0.015 M sodium-phosphate buffer, pH 7.2). Larvae for controls were injected with 5 μl 1×PBS. Paralysis and mortality was recorded 12-96 h after injection.

[3] = test system: vertebrate calcium channels; settings: cited from earlier work
[4] = test system: invertebrate calcium channels; settings: cited from earlier work
Spodoptera sp. = settings: native PI1a, literature value; cited from earlier work

snowdrop lectin (GNA)
reductions in survival ([1]; 30 μg control treatments, 3rd stadium): 0-20% | mortality after 5 days ([1]; single 2 μl droplet containing 20 μg, third instar): 20% | mortality [2]: do not result in mortality

ω-ACTX-Hv1a [Hv1a (literature)]
block of vertebrate calcium channels [3]: not vertebrate | block of invertebrate calcium channels [4]: block invertebrate

δ-amaurobitoxin-PI1a [Pl1a (literature)]
LD50 (Spodoptera sp.): 9.5 µg/g
